Our source for the Activity values is ChEMBL document CHEMBL2073988, “Secretory transport of methylprednisolone possibly mediated by P-glycoprotein in Caco-2 cells” (Biol Pharm Bull, 2002).

The target of the data set is ATP-dependent translocase ABCB1 (Homo sapiens, UniProt P08183). Description: TP_TRANSPORTER: transepithelial transport (basal to apical), inhibited by Verapamil in Caco-2 cells. In kind it is functional, cell-based. A general note: Passage across Caco-2 layers is used to estimate intestinal permeability.
ATP-dependent translocase ABCB1, sequence (P08183 whole entry): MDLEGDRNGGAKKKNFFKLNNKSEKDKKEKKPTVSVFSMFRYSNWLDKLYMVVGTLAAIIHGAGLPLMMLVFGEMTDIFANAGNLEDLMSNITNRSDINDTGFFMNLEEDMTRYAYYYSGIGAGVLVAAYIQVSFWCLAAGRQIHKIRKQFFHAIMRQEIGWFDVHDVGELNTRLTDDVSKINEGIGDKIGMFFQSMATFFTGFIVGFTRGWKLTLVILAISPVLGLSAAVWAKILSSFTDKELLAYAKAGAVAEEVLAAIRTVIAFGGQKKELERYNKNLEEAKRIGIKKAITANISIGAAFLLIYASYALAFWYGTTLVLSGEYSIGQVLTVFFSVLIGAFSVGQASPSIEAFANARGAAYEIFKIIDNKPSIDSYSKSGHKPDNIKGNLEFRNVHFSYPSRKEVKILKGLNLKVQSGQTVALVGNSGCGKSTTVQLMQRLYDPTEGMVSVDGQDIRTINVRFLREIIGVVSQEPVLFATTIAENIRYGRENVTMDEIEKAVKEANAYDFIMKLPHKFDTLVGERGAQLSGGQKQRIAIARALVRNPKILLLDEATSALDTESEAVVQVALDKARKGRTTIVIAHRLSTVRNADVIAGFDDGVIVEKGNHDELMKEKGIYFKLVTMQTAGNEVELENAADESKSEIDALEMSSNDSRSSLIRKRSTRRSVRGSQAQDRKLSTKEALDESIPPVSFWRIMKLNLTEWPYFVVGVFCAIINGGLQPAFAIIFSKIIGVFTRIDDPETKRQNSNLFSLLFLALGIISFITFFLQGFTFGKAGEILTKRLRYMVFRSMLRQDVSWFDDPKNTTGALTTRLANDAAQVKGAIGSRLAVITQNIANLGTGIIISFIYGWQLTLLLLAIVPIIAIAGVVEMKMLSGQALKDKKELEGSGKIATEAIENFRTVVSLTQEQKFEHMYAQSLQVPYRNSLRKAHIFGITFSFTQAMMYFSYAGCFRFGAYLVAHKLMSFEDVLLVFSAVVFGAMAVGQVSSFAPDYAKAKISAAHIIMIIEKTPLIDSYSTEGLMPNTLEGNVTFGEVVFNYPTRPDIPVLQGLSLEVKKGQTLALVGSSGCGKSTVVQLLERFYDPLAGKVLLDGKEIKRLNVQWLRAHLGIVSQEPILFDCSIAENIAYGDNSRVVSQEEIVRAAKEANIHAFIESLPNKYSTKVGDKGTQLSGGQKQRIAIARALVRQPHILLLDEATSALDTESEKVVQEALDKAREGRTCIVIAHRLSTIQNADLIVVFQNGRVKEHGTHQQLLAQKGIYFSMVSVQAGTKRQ

Consider `C[C@H]1C[C@@H]2[C@H]([C@@H](O)C[C@@]3(C)[C@H]2CC[C@]3(O)C(=O)CO)[C@@]2(C)C=CC(=O)C=C12` [METHYLPREDNISOLONE], for which the Activity entry is “substrate [+]”.
